Source: US8691811B2, “Quinazolinone linked pyrrolo[2,1-c][1,4]benzodiazepine hybrids as potential anticancer agents and process for the preparation thereof” (Council of Scientific & Industrial Research, priority 2008, dated 2014)

Legend:
[1] = test system: MCF7; assay: Tata protocol cytotoxicity (SRB, 48 h), MCF7; assay type: cell-based, human; conditions: MCF7, breast
Method: (§1) The C8-linked quinazolinone-PBD hybrids (5b, 5c, 5k, 5l, 5m) have been tested against eleven human tumour cell lines derived from seven cancer types (lung cancer, colon cancer, cervix, ovarian cancer, oral cancer, prostate cancer and breast cancer) as per Tata protocol. For each compound, dose response curves for individual cell lines have been measured at a minimum of five concentrations at 10 fold dilutions. A protocol of 48 h continuous drug exposure has been used, and a sulforhodamine B (SRB) protein assay was used to estimate cell viability or growth. Compounds 5b, 5c, 5k, 5l, 5m have been evaluated for their in vitro cytotoxicity in eleven cell lines from seven human cancer types of lung (Hop-62, A-549) colon (COLO-205) cervix (Si-Ha), ovary (A-2780), prostate (PC3) breast (MCF7, Zr-75-1), oral (DWD, GURAV, KB). The results are expressed as percent of cell growth determined relative to that of untreated control cells (Table-4).

[2] = test system: eleven human tumour cell lines; assay: Tata protocol in vitro cytotoxicity (SRB, 48 h), all cell lines; assay type: cell-based; conditions: bound over all eleven cell lines, read-out: GI50 value against eleven cell lines in seven cell panels
Method: as §1

[3] = test system: DWD; assay: Tata protocol cytotoxicity (SRB, 48 h), DWD; assay type: cell-based, human; conditions: oral
Method: as §1

[4] = test system: A-2780; assay: Tata protocol cytotoxicity (SRB, 48 h), A-2780; assay type: cell-based, human
Method: as §1

[5] = test system: A-549; assay: Tata protocol cytotoxicity (SRB, 48 h), A-549; assay type: cell-based, human
Method: as §1

[6] = test system: Si-Ha; assay: Tata protocol cytotoxicity (SRB, 48 h), Si-Ha; assay type: cell-based, human; conditions: cervix
Method: as §1

[7] = test system: GURAV; assay: Tata protocol cytotoxicity (SRB, 48 h), GURAV; assay type: cell-based, human; conditions: oral
Method: as §1

[8] = test system: Colo-205; assay: Tata protocol cytotoxicity (SRB, 48 h), Colo-205; assay type: cell-based, human; conditions: Colo-205, colon
Method: as §1

[9] = test system: lung cancer cell lines (Hop-62, A-549); assay: Tata protocol cytotoxicity (SRB, 48 h), lung panel; assay type: cell-based; conditions: Homo sapiens; range over the panel; exposure period of at least 48 hrs; read-out: GI50, in vitro activity against lung
Method: as §1

[10] = test system: prostate cancer cell line (PC3); assay: Tata protocol cytotoxicity (SRB, 48 h), prostate panel; assay type: cell-based; conditions: Homo sapiens; exposure period of at least 48 hrs; read-out: GI50, in vitro activity against prostate
Method: as §1

[11] = test system: ovarian cancer cell line (A-2780); assay: Tata protocol cytotoxicity (SRB, 48 h), ovarian panel; assay type: cell-based; conditions: Homo sapiens, A2780; exposure period of at least 48 hrs; read-out: GI50, in vitro activity against ovarian
Method: as §1

[12] = test system: PC-3; assay: Tata protocol cytotoxicity (SRB, 48 h), PC-3; assay type: cell-based, human; conditions: PC-3, prostate
Method: as §1

[13] = test system: Zr-75-1; assay: Tata protocol cytotoxicity (SRB, 48 h), Zr-75-1; assay type: cell-based, human; conditions: Zr-75-1, breast
Method: as §1

[14] = test system: duplex-form calf thymus DNA (CT-DNA); assay: Thermal denaturation studies with calf thymus DNA; assay type: binding; conditions: [PBD]:[DNA] molar ratio 1:5, CT-DNA 100 μM, ligand 20 μM, pH 7.00
Method: Compounds have been subjected to thermal denaturation studies with duplex-form calf thymus DNA (CT-DNA) using a modification of a reported procedure. Working solutions in aqueous buffer ([…] NaH2PO4/Na2HPO4, 1 mM Na2EDTA, pH 7.00+0.01). containing CT-DNA (100 μm in phosphate) and the PBD (20 μm) have been prepared by addition of concentrated PBD solutions in DMSO to obtain a fixed [PBD]/[DNA] molar ratio of 1:5. The DNA-PBD solutions have been incubated at 37° C. for 0 and 18 hrs prior to analysis. Samples have been monitored at 260 nm using a Beckman DU-800 spectrophotometer fitted with high performance temperature controller, and heated at 1° C. min^−1 in the 40-110° C. range. DNA helix→coil transition temperatures (Tm) have been obtained from the maxima in the d(A260)/dT derivative plots. Drug-induced alterations in DNA melting behavior are given by: ΔTm=Tm(DNA+PBD)−Tm(DNA alone), where the Tm value for the PBD-free CT-DNA is 68.5±0.01.
The DNA-binding for these novel C8-linked quinazolinone-PBD hybrids has been examined by thermal denaturation studies using calf thymus (CT) DNA. […] Data for 5b, 5c, 5d, and 5k, 5l, 5m and DC-81 are included in Table 5 for comparison.

[15] = test system: breast cancer cell lines (MCF7, Zr-75-1); assay: Tata protocol cytotoxicity (SRB, 48 h), breast panel; assay type: cell-based; conditions: Homo sapiens; range over the panel; exposure period of at least 48 hrs; read-out: IC50, in vitro activity against breast
Method: as §1

[16] = test system: colon cancer cell line (COLO-205); assay: Tata protocol cytotoxicity (SRB, 48 h), colon panel; assay type: cell-based; conditions: Homo sapiens, exposure period of at least 48 hrs, read-out: GI50, in vitro activity against colon
Method: as §1

[17] = test system: HOP-62; assay: Tata protocol cytotoxicity (SRB, 48 h), HOP-62; assay type: cell-based, human; conditions: HOP-62, lung
Method: as §1

[18] = test system: KB; assay: Tata protocol cytotoxicity (SRB, 48 h), KB; assay type: cell-based, human; conditions: oral
Method: as §1

SMILES	ΔTm after incubation at 37° C. for 0 h [14]	ΔTm after incubation at 37° C. for 18 h [14]	GI50 [1]	GI50 [3]	GI50 ([4]; A-2780, ovary)	GI50 ([5]; A-549, lung)	GI50 [6]	GI50 [7]	GI50 [8]	GI50 [12]	GI50 [13]	GI50 [17]	GI50 [18]	further results
COc1cc2c(cc1OCCCOc1ccc(-n3c(C)nc4ccccc4c3=O)cc1)N=C[C@@H]1CCCN1C2=O [5b, 7-methoxy-8{-3-[4-(2-methyl-4-oxo-3,4-dihydro-3-quinazolinyl)phenoxy]propoxy}-(11aS)-1,2,3,11a-tetrahydro-5H-pyrrolo[2,1-c][1,4]benzodiazepine-5-one]	1.0 °C	2.0 °C	–	–	–	–	–	–	–	–	–	–	–	GI50 ([1]; Homo sapiens): 1.83 µM; GI50 [2]: < 1.83 µM; GI50 ([3]; Homo sapiens): 0.11 µM; GI50 ([4]; Homo sapiens, A2780, A-2780, ovary): 0.1 µM; GI50 ([5]; Homo sapiens, A549, A-549, lung): 1.48 µM; GI50 ([6]; Homo sapiens, SiHa): 0.16 µM; GI50 ([7]; Homo sapiens): 0.13 µM; GI50 ([8]; Homo sapiens): 0.14 µM; GI50 [9]: 0.16 to 1.48 µM; GI50 [10]: 0.13 µM; GI50 [11]: 0.1 µM; GI50 ([12]; Homo sapiens): 0.13 µM; GI50 ([13]; Homo sapiens): 0.16 µM; IC50 [15]: 0.16 to 1.83 µM; GI50 [16]: 0.14 µM; GI50 ([17]; Homo sapiens): 0.16 µM; GI50 ([18]; Homo sapiens): 0.15 µM
COc1cc2c(cc1OCCCCOc1ccc(-n3c(C)nc4ccccc4c3=O)cc1)N=C[C@@H]1CCCN1C2=O [5c, 7-methoxy-8{-4-[4-(2-methyl-4-oxo-3,4-dihydro-3-quinazolinyl)phenoxy]butoxy-}-(11aS)-1,2,3,11a-tetrahydro-5H-pyrrolo[2,1-c][1,4]benzodiazepine-5-one]	1.0 °C	2.1 °C	2.3 µM	1.6 µM	0.16 µM	1.93 µM	1.91 µM	1.95 µM	1.81 µM	0.17 µM	1.97 µM	1.95 µM	1.98 µM	–
COc1cc2c(cc1OCCCOc1ccc(-n3c(/C=C/c4ccccc4)nc4ccccc4c3=O)cc1)N=C[C@@H]1CCCN1C2=O [5k, 7-methoxy-8-{3-[(4-4-oxo-2-[(E)-2-phenyl-1-ethenyl]-3,4-dihydro-3-quinazolinylphenyl)oxy]propoxy}-(11aS)-1,2,3,11a-tetrahydro-5H-pyrrolo[2,1-c][1,4]benzodiazepine-5-one]	1.0 °C	2.0 °C	2.03 µM	0.14 µM	0.14 µM	1.88 µM	2 µM	1.85 µM	2.12 µM	0.16 µM	0.17 µM	2.15 µM	1.78 µM	–
COc1cc2c(cc1OCCCCOc1ccc(-n3c(/C=C/c4ccccc4)nc4ccccc4c3=O)cc1)N=C[C@@H]1CCCN1C2=O [5l, 7-methoxy-8-{4-[(4-4-oxo-2-[(E)-2-phenyl-1-ethenyl]-3,4-dihydro-3-quinazolinylphenyl)oxy]butoxy}-(11aS)-1,2,3,11a-tetrahydro-5H-pyrrolo[2,1-c][1,4]benzodiazepine-5-one]	1.2 °C	2.3 °C	–	0.16 µM	0.16 µM	2.39 µM	2.19 µM	1.93 µM	2.23 µM	1.91 µM	2.44 µM	2.33 µM	2.07 µM	–
COc1cc2c(cc1OCCCCCOc1ccc(-n3c(/C=C/c4ccccc4)nc4ccccc4c3=O)cc1)N=C[C@@H]1CCCN1C2=O [5m, 7-methoxy-8-{5-[(4-4-oxo-2-[(E)-2-phenyl-1-ethenyl]-3,4-dihydro-3-quinazolinylphenyl)oxy]pentyloxy}-(11aS)-1,2,3,11a-tetrahydro-5H-pyrrolo[2,1-c][1,4]benzodiazepine-5-one]	1.1 °C	2.1 °C	2.5 µM	0.17 µM	0.15 µM	2.62 µM	2.08 µM	1.82 µM	2 µM	1.83 µM	2.09 µM	2.31 µM	2.15 µM	–
COc1cc2c(cc1O)N=CC1CCCN1C2=O (stereo not drawn) [DC-81, reference compound]	0.3 °C	0.7 °C	–	–	–	–	–	–	–	–	–	–	–	–
